One assay concerns the target T1, Drosophila OR98a (Drosophila melanogaster, UniProt Q9VAZ3).
T1 construct: expressed in transfected cells
T1 sequence (Q9VAZ3 1-397): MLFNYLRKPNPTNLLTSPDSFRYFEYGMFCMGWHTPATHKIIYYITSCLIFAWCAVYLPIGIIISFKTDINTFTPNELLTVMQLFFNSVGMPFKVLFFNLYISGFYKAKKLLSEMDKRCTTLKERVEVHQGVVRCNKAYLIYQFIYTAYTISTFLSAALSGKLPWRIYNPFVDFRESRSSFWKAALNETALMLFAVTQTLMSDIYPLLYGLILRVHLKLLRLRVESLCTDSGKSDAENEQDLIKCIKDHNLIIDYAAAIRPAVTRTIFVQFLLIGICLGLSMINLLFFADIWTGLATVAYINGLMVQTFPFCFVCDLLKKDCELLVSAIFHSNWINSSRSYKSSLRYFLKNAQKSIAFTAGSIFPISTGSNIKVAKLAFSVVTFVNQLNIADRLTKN
T1 sequence (Q9VNB5 1-486 partner): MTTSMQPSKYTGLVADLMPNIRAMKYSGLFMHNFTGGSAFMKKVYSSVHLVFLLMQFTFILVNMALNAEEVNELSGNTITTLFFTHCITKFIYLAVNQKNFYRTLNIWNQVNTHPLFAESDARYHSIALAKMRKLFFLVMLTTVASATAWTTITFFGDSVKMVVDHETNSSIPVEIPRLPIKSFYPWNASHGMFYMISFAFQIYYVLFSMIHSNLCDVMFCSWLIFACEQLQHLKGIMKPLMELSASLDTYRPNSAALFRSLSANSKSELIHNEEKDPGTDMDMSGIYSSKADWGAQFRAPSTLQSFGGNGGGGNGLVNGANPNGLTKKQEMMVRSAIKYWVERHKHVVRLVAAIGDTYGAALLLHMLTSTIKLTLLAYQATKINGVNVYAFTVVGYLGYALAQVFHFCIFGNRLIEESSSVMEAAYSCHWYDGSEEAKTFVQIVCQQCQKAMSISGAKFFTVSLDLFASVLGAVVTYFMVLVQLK
Kind of assay: Calcium ion fluorescence (GCaMP6) assay, OR98a stable HEK293 cell line. The format is cell-based. The essentials: (§1)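 HEK293 lines stably expressing each Drosophila OR with GCaMP6, doxycycline-induced (1 μg/mL) 48 or 72 h. Fluorescence recorded 5 s baseline then 30 s after VOC injection at pH 7.3; ΔF=(FMAX−F0)/F0, normalized to 50 µM VUAA1 response per line, triplicate wells averaged; concentration series 0.01–100 μM.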

A further assay deals with T2, Drosophila OR13a (Drosophila melanogaster, UniProt Q9VXL0).
T2 construct: expressed in transfected cells
T2 sequence (Q9VXL0 1-418): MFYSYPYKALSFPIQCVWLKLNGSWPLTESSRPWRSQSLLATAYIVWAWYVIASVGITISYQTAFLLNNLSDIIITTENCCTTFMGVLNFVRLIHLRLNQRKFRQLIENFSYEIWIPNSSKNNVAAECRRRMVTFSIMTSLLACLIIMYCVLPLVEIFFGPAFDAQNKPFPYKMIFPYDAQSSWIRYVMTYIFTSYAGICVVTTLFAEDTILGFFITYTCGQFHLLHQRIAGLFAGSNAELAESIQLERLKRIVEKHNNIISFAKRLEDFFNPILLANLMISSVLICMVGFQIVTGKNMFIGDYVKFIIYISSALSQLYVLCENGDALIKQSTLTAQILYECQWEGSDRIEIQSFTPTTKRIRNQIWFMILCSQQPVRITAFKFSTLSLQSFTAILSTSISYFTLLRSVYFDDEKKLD
T2 sequence (Q9VNB5 1-486 partner): T1 sequence (Q9VNB5 1-486 partner)
Kind of assay: Calcium ion fluorescence (GCaMP6) assay, OR13a stable HEK293 cell line. The format is cell-based. The note with it: for dose-response, AVERAGE response: N 3. The essentials: as §1

Setting [1] is: HEK293, read-out: Average response.
Where [2] appears, read: HEK293, read-out: OR98a response (VUAA1-normalized response).
Where [3] appears, read: concentration 1, normalized fluorescence change, values below 0.05 threshold given as 0.
The mark [4] stands for this setting: concentration 10, normalized fluorescence change, values below 0.05 threshold given as 0.
[5] abbreviates: concentration 100, normalized fluorescence change, values below 0.05 threshold given as 0.
[6] abbreviates: HEK293, read-out: OR13a Average response (VUAA1-normalized), 1 μM VOC, 50 μM VUAA1 = 1, responses not exceeding 0.05 considered 0.
The mark [7] stands for this setting: HEK293, read-out: OR13a Average response (VUAA1-normalized), 10 μM VOC, 50 μM VUAA1 = 1, responses not exceeding 0.05 considered 0.
The mark [8] stands for this setting: HEK293, read-out: OR13a Average response (VUAA1-normalized), 100 μM VOC, 50 μM VUAA1 = 1, responses not exceeding 0.05 considered 0.
[9] abbreviates: HEK293, read-out: OR13a response (VUAA1-normalized response), VOC concentration 1 μM.
[10] abbreviates: HEK293, read-out: OR13a response (VUAA1-normalized response), VOC concentration 10 μM.
Setting [11] is: HEK293, read-out: OR13a response (VUAA1-normalized response), VOC concentration 100 μM.
[12] abbreviates: the 13th table, VOC concentration 2.5.
The mark [13] stands for this setting: the 13th table, VOC concentration 5.
Setting [14] is: the 13th table, VOC concentration 25.
Setting [15] is: the 13th table, VOC concentration 50.
The mark [16] stands for this setting: the 13th table, VOC concentration 100.
Setting [17] is: ligand concentration 1 (unit not given), threshold 0.05, below shown as 0.
Setting [18] is: ligand concentration 10 (unit not given), threshold 0.05, below shown as 0.
Where [19] appears, read: ligand concentration 100 (unit not given), threshold 0.05, below shown as 0.

Molecules are shown by their SMILES. “And” between values parts separate entries of the source, which are not always exact repeats. Equal entries are not always repeated. Where two headings read alike, the source gives them in different places.

Usually EC50 stands for the concentration at which the effect is half-maximal. For the molecule `C=CC(O)C/C=C\CC` (stereo not drawn) [(5Z)-octa-1,5-dien-3-ol], the activation at 1 µM at Drosophila OR98a (setting [1]), on Drosophila OR98a (setting [2]), on Drosophila OR13a (setting [6]) and on Drosophila OR13a (setting [9]) was 0% throughout. Further, the activation at 10 µM turned out to be 8% at Drosophila OR98a (setting [1]), 8% on Drosophila OR98a (setting [2]), 15% at Drosophila OR13a (setting [7]) and 15% at Drosophila OR13a (setting [10]). The activation at 100 µM at Drosophila OR98a (setting [1]) was 7%; on Drosophila OR98a (setting [2]), 7%; on Drosophila OR13a (setting [8]), 37%; on Drosophila OR13a (setting [11]), 37%. Further, the figures for the “DF norm AVERAGE OR98a” value at Drosophila OR98a (setting [3]), at Drosophila OR98a (setting [4]) and on Drosophila OR98a (setting [5]) were 0, 0.08127 and 0.07281, respectively. In addition, the EC50 was 7.19 µM on Drosophila OR13a (EC50, fitted average curve, the 13th table, fit to the average curve, n 0.854956); 9.97 µM and 3 µM and 5.85 µM at Drosophila OR13a (EC50, fitted parameter per biological replicate, the 13th table, OR13a D-R (5Z)-octa-1,5-dien-3-ol, individual replicate fits, MIN 0, n 1); 9.97 µM and 3 µM and 5.85 µM on Drosophila OR13a (EC50, fitted parameter per biological replicate, the 13th table, individual replicate fits). For the same molecule, the “DF norm AVERAGE OR13a” value on Drosophila OR13a (setting [3]) amounted to 0; at Drosophila OR13a (setting [4]), 0.1531; on Drosophila OR13a (setting [5]), 0.3701. In addition, the “dose-response, response per biological replicate” value at Drosophila OR13a (setting [12]) was 0 and 0.07532 and 0.2134; at Drosophila OR13a (setting [13]) it was 0.1122 and 0.07908 and 0.2962; at Drosophila OR13a (setting [14]) it was 0.1336 and 0.1252 and 0.4462; at Drosophila OR13a (setting [15]), 0.1449 and 0.1487 and 0.5376; on Drosophila OR13a (setting [16]) it was 0.2093 and 0.133 and 0.6441. Further, the “dose-response, AVERAGE response” value came out at 0.09623 at Drosophila OR13a (setting [12]); 0.1625 on Drosophila OR13a (setting [13]); 0.235 at Drosophila OR13a (setting [14]); 0.2771 at Drosophila OR13a (setting [15]); 0.3288 at Drosophila OR13a (setting [16]). Moreover, the “MAX, fitted average curve” value at Drosophila OR13a (the 13th table, fit to the average curve, n 0.854956) was determined as 0.3433. Further, the “MAX, fitted parameter per biological replicate” value at Drosophila OR13a (the 13th table, individual replicate fits) was 0.2031 and 0.1439 and 0.6228 and 0.37.

Take `Cc1cccc(O)c1` [3-methylphenol]: the activation at 1 µM at Drosophila OR98a (setting [1]) was 4.63%; on Drosophila OR98a (setting [2]), 0%; on Drosophila OR13a (setting [6]), 0%; at Drosophila OR13a (setting [9]), 0%. Further, the activation at 10 µM on Drosophila OR98a (setting [1]) was determined as 4.61%; at Drosophila OR98a (setting [2]) it was 0%; on Drosophila OR13a (setting [7]), 0%; on Drosophila OR13a (setting [10]), 0%. In addition, the activation at 100 µM at Drosophila OR98a (setting [1]) was 6%; at Drosophila OR98a (setting [2]) it was 6%; at Drosophila OR13a (setting [8]), 1.35%; on Drosophila OR13a (setting [11]) it was 0%. The results for the “DF norm AVERAGE OR98a” value on Drosophila OR98a (setting [3]), on Drosophila OR98a (setting [4]) and at Drosophila OR98a (setting [5]) were 0, 0 and 0.05828, respectively. For the same molecule, the “DF norm AVERAGE OR13a” value at Drosophila OR13a (setting [3]), at Drosophila OR13a (setting [4]) and on Drosophila OR13a (setting [5]) was 0 each time.

With `CCCCCC(=O)OCC` [ethyl hexanoate], the activation at 1 µM is 5% on Drosophila OR98a (setting [1]), 0% on Drosophila OR98a (setting [2]), 3.2% at Drosophila OR13a (setting [6]) and 0% at Drosophila OR13a (setting [9]). The activation at 10 µM at Drosophila OR98a (setting [1]) came out at 12%; on Drosophila OR98a (setting [2]), 12%; on Drosophila OR13a (setting [7]), 2.46%; at Drosophila OR13a (setting [10]) it was 0%. The activation at 100 µM is 3.29% on Drosophila OR98a (setting [1]), 0% on Drosophila OR98a (setting [2]), 0% at Drosophila OR13a (setting [8]) and 0% at Drosophila OR13a (setting [11]). The entries for the “DF norm AVERAGE OR98a” value at Drosophila OR98a (setting [17]), at Drosophila OR98a (setting [18]) and on Drosophila OR98a (setting [19]) were 0, 0.1164 and 0, respectively. Moreover, the “DF norm AVERAGE OR13a” value on Drosophila OR13a (setting [17]), on Drosophila OR13a (setting [18]) and at Drosophila OR13a (setting [19]) was 0 each time.

The values are drawn from publication PMC10709440, “High-throughput ligand profile characterization in novel cell lines expressing seven heterologous insect olfactory receptors for the detection of volatile plant biomarkers” (Scientific Reports, 2023).
